Experimental data from US20070212712A1, “Methods for identifying modulators of hedgehog autoprocessing” (priority 2005, published 2007).

Test system: Shh-N signaling
Assay: Autoprocessing-independent Shh-N signaling assay (Gli-luciferase, control)
Assay type: cell-based, mouse
Conditions: 1 μM KAAD-cyclopamine
Procedure: This cell-based assay (FIGS. 1A and 1B) made use of Hh-responsive 3T3 mouse cells stably transfected with a Shh plasmid expressing full length Shh protein that undergoes autoprocessing to produce functionally active Shh protein. Cells incubated with pre-spliced N-Shh protein were used as a control. Shh signaling was assayed in control and treated cells using with dual luciferase reporter assay of luciferase activity expressed from an integrated copy of a Gli-luciferase reporter gene linked to of 8 tandem repeats of Gli transcription factor-binding sites, normalized to activity of a Renilla gene under the control of minimum TK promoter, to monitor toxicity and cell survival. Inhibition was confirmed by Western blot analysis of Hh autoprocessing (FIG. 2). Additional cell-based assays for testing the activities of candidate Hh autoprocessing inhibitors in blocking full-length Hh signaling include the measurement of Hh target gene expression (Patched, Gli , IGF2, N-myc; for example, via a luciferase-based assay) and chondrocyte differentiation of 10T½ cells. Persons skilled in the art will note that the above assays are also suitable for use in a cell-free assay system.

In the case of `CC1=C2C[C@H]3[C@@H](CC=C4CC(=O)CC[C@@]43C)[C@@H]2CC[C@]12O[C@@H]1C[C@H](C)CN(CCNC(=O)CCCCCNC(=O)CCc3ccccc3)[C@H]1[C@H]2C` [KAAD-cyclopamine], the “Effect on Gli-luciferase activity in response to Shh-N” value is reported as “inhibited Gli-luciferase activity”.
